Measurements as given in patent publication US20210208149A1, “METHODS FOR CELL PROFILING” (priority 2018, published 2021).
Structures can show the parent of a compound that is named as a salt.

Columns and labels:
[1] = test system: A172; test: Cell proliferation assay (CCK8), fixed concentration, reference GBM cell line A172; assay type: cell-based, human; conditions: fixed test concentration per compound, Table 1 log[M]: Trequinsin −4.6, Fucoxanthin −4.8, PF04449613 −4, PF02545920 −4.6, TIC10 −5, PF04691502 −6.6, GSK1059615 −5.5, LY294002 −5, Axitinib −5, Temozolomide −5
Description: (§1) A wide range of approved and exploratory drugs are profiled for their ability to inhibit GBM cell proliferation. Their EC50 values against each separate cell line in the set are determined. […] Screening is performed in 96-well or 384-well or 1536-well formats.
(§2) Data was obtained from testing these compounds at fixed concentrations against normal control cells (HEK293S) alongside reference GBM cells (U87 and A172), to obtain a dataset (Table 1) within which to compare the pharmacological and pharmaceutical properties of compounds across a chosen chemotyping panel.
(§3) Data Obtained from Screening Compounds within a Chemotyping Panel Against a Control Cell Line (HEK293S) and Two Reference GBM Cell Lines (U87 and A172)

[2] = test system: U87; test: Cell proliferation assay (CCK8), fixed concentration, reference GBM cell line U87; assay type: cell-based, human; conditions: fixed test concentration per compound, Table 1 log[M]: Trequinsin −4.6, Fucoxanthin −4.8, PF04449613 −4, PF02545920 −4.6, TIC10 −5, PF04691502 −6.6, GSK1059615 −5.5, LY294002 −5, Axitinib −5, Temozolomide −5
Description: as §1, §2, §3

[3] = test system: HEK293S; test: Cell proliferation assay (CCK8), fixed concentration, control cell line; assay type: cell-based; conditions: fixed test concentration per compound, Table 1 log[M]: Trequinsin −4.6, Fucoxanthin −4.8, PF04449613 −4, PF02545920 −4.6, TIC10 −5, PF04691502 −6.6, GSK1059615 −5.5, LY294002 −5, Axitinib −5, Temozolomide −5
Description: as §1, §2, §3

[4] = test system: U118; conditions: GBM cell line U118; adapted from reference [13]; cited from earlier work
[5] = test system: LN443; conditions: GBM cell line LN443; adapted from reference [13]; cited from earlier work
[6] = test system: U87; conditions: GBM cell line U87; adapted from reference [13]; cited from earlier work
[7] = test system: A172; conditions: GBM cell line A172; adapted from reference [13]; cited from earlier work

Cn1nnc2c(C(N)=O)ncn2c1=O [Temozolomide]
% Inhibiton A172 [1]: 13% | % Proliferation A172 [1]: 87% | % Inhibiton U87 [2]: 5% | % Proliferation U87 [2]: 95% | % Inhibiton HEK293 [3]: 0% | % Proliferation HEK293 [3]: 100%

Dactinmycin
EC50 [4]: 0.0568 µM | EC50 [5]: 0.0196 µM | EC50 [6]: 0.437 µM | EC50 [7]: 0.0993 µM

COc1cccc2c1C(=O)c1c(O)c3c(c(O)c1C2=O)C[C@@](O)(C(=O)CO)C[C@@H]3O[C@H]1C[C@H](N)[C@H](O)[C@H](C)O1 [Docorubicine]
EC50 [4]: 0.0411 µM | EC50 [5]: 0.0629 µM | EC50 [6]: 0.0551 µM | EC50 [7]: 0.0488 µM

CC(C)/N=c1\cc2n(-c3ccc(Cl)cc3)c3ccccc3nc-2cc1Nc1ccc(Cl)cc1 [Clofaximine]
EC50 [4]: 19.7 µM | EC50 [5]: 20.1 µM | EC50 [6]: 8.61 µM | EC50 [7]: 11.9 µM

COc1cc2c(cc1OC)-c1c/c(=N\c3c(C)cc(C)cc3C)n(C)c(=O)n1CC2 [Trequinsin]
% Inhibiton A172 [1]: 37% | % Proliferation A172 [1]: 63% | % Inhibiton U87 [2]: 11% | % Proliferation U87 [2]: 89% | % Inhibiton HEK293 [3]: 59% | % Proliferation HEK293 [3]: 41%

CCc1c2c(nc3ccc(OC(=O)N4CCC(N5CCCCC5)CC4)cc13)-c1cc3c(c(=O)n1C2)COC(=O)[C@]3(O)CC [Irinitecan]
EC50 [4]: 4.6 µM | EC50 [5]: 4.01 µM | EC50 [6]: 8.03 µM | EC50 [7]: 7.97 µM

COc1ccc(-c2cc3c(C)nc(N)nc3n([C@H]3CC[C@H](OCCO)CC3)c2=O)cn1 [PF04691502]
% Inhibiton A172 [1]: 44% | % Proliferation A172 [1]: 56% | % Inhibiton U87 [2]: 35% | % Proliferation U87 [2]: 65% | % Inhibiton HEK293 [3]: 45% | % Proliferation HEK293 [3]: 55%

COc1cccc2c1C(=O)c1c(O)c3c(c(O)c1C2=O)C[C@@](O)(C(=O)CO)C[C@@H]3O[C@H]1C[C@H](N)[C@@H](O)[C@H](C)O1 [Epirubicin]
EC50 [4]: 0.0469 µM | EC50 [5]: 0.0412 µM | EC50 [6]: 0.0593 µM | EC50 [7]: 0.0622 µM

Cc1ccccc1CN1C(=O)C2=C(CCN(Cc3ccccc3)C2)N2CCN=C12 [TIC10]
% Inhibiton A172 [1]: 68% | % Proliferation A172 [1]: 32% | % Inhibiton U87 [2]: 27% | % Proliferation U87 [2]: 73% | % Inhibiton HEK293 [3]: 83% | % Proliferation HEK293 [3]: 17%

Cn1cc(-c2ccncc2)c(-c2ccc(OCc3ccc4ccccc4n3)cc2)n1 [PF02545920]
% Inhibiton A172 [1]: 80% | % Proliferation A172 [1]: 20% | % Inhibiton U87 [2]: 30% | % Proliferation U87 [2]: 70% | % Inhibiton HEK293 [3]: 84% | % Proliferation HEK293 [3]: 16%

CC(C)[C@]12O[C@H]1[C@@H]1O[C@]13[C@]1(O[C@H]1C[C@H]1C4=C(CC[C@@]13C)C(=O)OC4)[C@@H]2O [Triptolide]
EC50 [4]: 0.0101 µM | EC50 [5]: 0.0308 µM | EC50 [6]: 0.00653 µM | EC50 [7]: 0.00833 µM

CC[C@]1(O)C[C@H]2CN(CCc3c([nH]c4ccccc34)[C@@](C(=O)OC)(c3cc4c(cc3OC)N(C=O)[C@H]3[C@@](O)(C(=O)OC)[C@H](OC(C)=O)[C@]5(CC)C=CCN6CC[C@]43[C@@H]65)C2)C1 [Vincrinstine]
EC50 [4]: 1.19 µM | EC50 [5]: 0.873 µM | EC50 [6]: 1.32 µM | EC50 [7]: 0.042 µM

Fucoxanthin
% Inhibiton A172 [1]: 66% | % Proliferation A172 [1]: 34% | % Inhibiton U87 [2]: 26% | % Proliferation U87 [2]: 74% | % Inhibiton HEK293 [3]: 76% | % Proliferation HEK293 [3]: 24%

CC[C@@]1(O)C(=O)OCc2c1cc1n(c2=O)Cc2cc3c(CN(C)C)c(O)ccc3nc2-1 [Topetecan]
EC50 [4]: 0.184 µM | EC50 [5]: 0.136 µM | EC50 [6]: 0.167 µM | EC50 [7]: 0.649 µM

CC[C@]1(O)C[C@@H]2CN(CCc3c([nH]c4ccccc34)[C@@](C(=O)OC)(c3cc4c(cc3OC)N(C)[C@H]3[C@@](O)(C(N)=O)[C@H](O)[C@]5(CC)C=CCN6CC[C@]43[C@@H]65)C2)C1 [Vindesine sulfate]
EC50 [4]: 0.67 µM | EC50 [5]: 0.495 µM | EC50 [6]: 0.414 µM | EC50 [7]: 0.0232 µM

O=C1NC(=O)/C(=C/c2ccc3nccc(-c4ccncc4)c3c2)S1 [GSK1059615]
% Inhibiton A172 [1]: 74% | % Proliferation A172 [1]: 26% | % Inhibiton U87 [2]: 57% | % Proliferation U87 [2]: 43% | % Inhibiton HEK293 [3]: 79% | % Proliferation HEK293 [3]: 21%

C[C@H](c1nc2c(cnn2C2CCOCC2)c(=O)[nH]1)N1CC(Oc2ccccc2)C1 [PF04449613]
% Inhibiton A172 [1]: 61% | % Proliferation A172 [1]: 39% | % Inhibiton U87 [2]: −14% | % Proliferation U87 [2]: 114% | % Inhibiton HEK293 [3]: 10% | % Proliferation HEK293 [3]: 90%

Nc1ncnc2c1ncn2[C@H]1C[C@H](O)[C@@H](CO)O1 [Deoxyadenosine]
EC50 [4]: 0.59 µM | EC50 [6]: 2.11 µM | EC50 [7]: 1.77 µM

COCc1c(C(C)C)nc(C(C)C)c(/C=C/[C@@H](O)C[C@@H](O)CC(=O)O)c1-c1ccc(F)cc1 [Cericastatin]
EC50 [4]: 0.741 µM | EC50 [5]: 0.024 µM | EC50 [6]: 0.668 µM | EC50 [7]: 0.0317 µM

O=c1cc(N2CCOCC2)oc2c(-c3ccccc3)cccc12 [LY294002]
% Inhibiton A172 [1]: 42% | % Proliferation A172 [1]: 58% | % Inhibiton U87 [2]: −17% | % Proliferation U87 [2]: 117% | % Inhibiton HEK293 [3]: 2% | % Proliferation HEK293 [3]: 98%

COC(=O)C[C@](O)(CCCC(C)(C)O)C(=O)O[C@@H]1C(OC)=C[C@]23CCCN2CCc2cc4c(cc2[C@H]13)OCO4 [Homoharringtonin]
EC50 [4]: 1.14 µM | EC50 [5]: 0.0289 µM | EC50 [6]: 0.022 µM

O=C(O)C[C@H](O)C[C@H](O)/C=C/c1c(C2CC2)nc2ccccc2c1-c1ccc(F)cc1 [Pitavastatin]
EC50 [4]: 1.92 µM | EC50 [5]: 0.083 µM | EC50 [6]: 3.52 µM | EC50 [7]: 0.274 µM
